Results reported in US20240207162A1, “CARGO MOLECULE TRANSDUCTION DOMAIN RMAD1, VARIANT THEREOF, RECOMBINANT CARGO MOLECULE, AND METHOD FOR TRANSDUCING CARGO MOLECULE USING SAME” (REMEDI CO., LTD., priority 2021, published 2024).

Test system: RAW264.7 cells
Assay: Introduction of SOD1 fusion proteins into RAW264.7 cells
Format: cell-based
Details: 0.5 uM, 2 hours
Procedure: SOD1, which is widely known as an antioxidant enzyme, was fused with a cell-penetrating peptide, and the cell-penetrating ability and activity maintenance were evaluated using RAW264.7 cells. The recombinant proteins SOD1, SOD1-TAT, and SOD1-RMAD1 were treated at the same concentration of 0.5 uM to RAW264.7 cells for 2 hours.

SOD1: antioxidant enzyme, recombinant control protein
level of cell penetration: did not penetrate cells
